15 compounds from patent US20230002408A1, “HETEROARYLDIHYDROPYRIMIDINE DERIVATIVES AND METHODS OF TREATING HEPATITIS B INFECTIONS” (JANSSEN PHARMACEUTICA NV, priority 2019, published 2023) can be followed below.

Read-outs that look alike come from different tables or passages of the source.

Type in all cases: cell-based
For one data set, the system named is HBV. Briefly: Anti-viral assay in HepG2.2.15 cells: HBV DNA in culture medium by qPCR. As for the experimental part: (§1) HepG2.2.15 (the HepG2.2.15 cell line can be produced by transfection of the HepG2 cell line as described in Sells, Chen, and Acs 1987 (Proc. Natl. Acad. Sci. USA 84: 1005-1009), and the HepG2 cell line is available from ATCC® under number HB-8065™).
(§2) HepG2.2.15 cells were plated into 96-well plate in 2% FBS culture medium at the density of 40,000 cells/well and 5,000 cells/well for HBV inhibitory activity and cytotoxicity determination, respectively. After incubation at 37° C., 5% CO2 overnight, cells were treated with medium containing compounds for 6 days with medium and compounds refreshed after 3 days of treatment. Each compound was tested in a 1:3 serial dilutions at 8 different concentrations in triplicate. The highest concentration of the compounds was 10 uM or 1 uM for anti-HBV activity assay and 100 uM for cytotoxicity determination. Cell viability was determined by CCK-8 assay. After 6 days of compounds treatment, 20 μl CCK-8 reagents were added to each well of cytotoxicity assay plates. Cell plates were incubated at 37° C., 5% CO2 for 2.5 h. The absorbance at 450 nm wavelength and the absorbance at 630 nm wavelength as reference was measured.
The change of HBV DNA level induced by the compounds was assessed by quantitative real-time polymerase chain reaction (qPCR). Briefly, the HBV DNA in the culture medium was extracted using QlAamp 96 DNA Blood Kit according to the manual and then quantified by real-time PCR assay using the primers and probe in the table 1 below.
(§3) EC50 and CC50 values are calculated by the GRAPHPAD PRISM software.
For orientation: In qPCR the cycle at which signal appears reflects the starting amount.

The subject of another data set is HepG2.2.15 cells. In words: Cytotoxicity determination in HepG2.2.15 cells (CCK-8 cell viability). The note with it: 6 days treatment, CCK-8, highest concentration 100 uM. As to the method: as §1, §2, §3
Test in data set [1]: as above
The note with it: human, 6 days treatment, CCK-8, highest concentration 100 uM. As for the experimental part: as §1, §2, §3

Where [2] appears, read: HepG2.2.15 cells, 6 days treatment, HBV DNA in culture medium by real-time PCR, read-out: EC50.
[3] abbreviates: Hepatitis B virus, HepG2.2.15, 144 h, HepG2.2.15 cells, 6 days treatment, HBV DNA in culture medium by real-time PCR, read-out: EC50.

In the case of `CCOC(=O)C1=C(CN2CCO[C@H]3CN(CC(C)(C)C(=O)O)C[C@H]32)NC(c2nccs2)=N[C@H]1c1ccc(F)cc1Cl` (relative stereo) [Compound I-1A, 3-((4aR*,7aS*)-4-4(R*)-6-(2-chloro-4-fluorophenyl)-5-(ethoxycarbonyl)-2-(thiazol-2-yl)-3,6-dihydropyrimidin-4-yl)methyl)hexahydropyrrolo[3,4-b][1,4]oxazin-6(2H)-yl)-2,2-dimethylpropanoic acid], the EC50 (in general, the concentration at which the effect is half-maximal) with HBV (setting [2]) amounted to 0.016 µM. Moreover, the midpoint of cytotoxicity in the data set on HepG2.2.15 cells, the CC50, lay at 59.8 µM.
As to `CCOC(=O)C1=C(CN2CCO[C@H]3CN(CC(C)(C)C(=O)O)C(=O)[C@H]32)NC(c2nccs2)=N[C@H]1c1ccc(F)cc1Cl` (relative stereo) [Compound I-20A, 3-((4aS*,7aS*)-4-4(R*)-6-(2-chloro-4-fluorophenyl)-5-(ethoxycarbonyl)-2-(thiazol-2-yl)-3,6-dihydropyrimidin-4-yl)methyl)-5-oxohexahydropyrrolo[3,4-b][1,4]oxazin-6(2H)-yl)-2,2-dimethylpropanoic acid], in the data set with HBV (setting [2]), the EC50 amounted to 0.001 µM. In addition, in the data set with HepG2.2.15 cells, the CC50 (in general, the concentration at which the toxic effect on the cells reaches its halfway point) came out at 55 µM.
Regarding `COC(=O)C1=C(CN2CCO[C@H]3CN(CC(C)(C)C(=O)O)C(=O)[C@H]32)NC(c2nccs2)=N[C@H]1c1cccc(F)c1C` (single isomer, unassigned) [Compound I-19A, 3-((4aS*,7aS*)-4-4(S*)-6-(3-fluoro-2-methylphenyl)-5-(methoxycarbonyl)-2-(thiazol-2-yl)-3,6-dihydropyrimidin-4-yl)methyl)-5-oxohexahydropyrrolo[3,4-b][1,4]oxazin-6(2H)-yl)-2,2-dimethylpropanoic acid], the EC50 in the data set with HBV (setting [3]) amounted to 0.028 µM. For the same compound, the CC50 at 6 days in data set [1] is 59.1 µM.
With `COC(=O)C1=C(CN2CCO[C@H]3CN(CC(C)(C)C(=O)O)C(=O)[C@H]32)NC(c2nccs2)=N[C@H]1c1cccc(F)c1Cl` (single isomer, unassigned) [Compound I-21A, 3-((4aS*,7aS*)-4-4(R*)-6-(2-chloro-3-fluorophenyl)-5-(methoxycarbonyl)-2-(thiazol-2-yl)-3,6-dihydropyrimidin-4-yl)methyl)-5-oxohexahydropyrrolo[3,4-b][1,4]oxazin-6(2H)-yl)-2,2-dimethylpropanoic acid], the EC50 in the data set with HBV (setting [3]) came out at 0.008 µM. The compound also registered a CC50 at 6 days in data set [1] of over 100 µM.
On the same counts, the results for `COC(=O)C1=C(CN2CCO[C@H]3CN(CC(C)(C)C(=O)O)C(=O)[C@H]32)NC(c2nccs2)=N[C@H]1c1ccc(F)c(F)c1Cl` (single isomer, unassigned) [Compound I-22A, 3-((4aS*,7aS*)-4-4(R*)-6-(2-chloro-3,4-difluorophenyl)-5-(methoxycarbonyl)-2-(thiazol-2-yl)-3,6-dihydropyrimidin-4-yl)methyl)-5-oxohexahydropyrrolo[3,4-b][1,4]oxazin-6(2H)-yl)-2,2-dimethylpropanoic acid] are 0.0005 µM and 44.3 µM.
For the compound `CCOC(=O)C1=C(CN2CCO[C@H]3CN(CC(C)(C)C(=O)O)C(=O)[C@H]32)NC(c2nccs2)=N[C@H]1c1ccc(F)c(F)c1Cl` (single isomer, unassigned) [Compound I-23A, 3-((4aS*,7aS*)-4-4(R*)-6-(2-chloro-3,4-difluorophenyl)-5-(ethoxycarbonyl)-2-(thiazol-2-yl)-3,6-dihydropyrimidin-4-yl)methyl)-5-oxohexahydropyrrolo[3,4-b][1,4]oxazin-6(2H)-yl)-2,2-dimethylpropanoic acid], the EC50 in the data set on HBV (setting [3]) came out at 0.0005 µM. In data set [1], this compound returned a CC50 at 6 days of 45 µM.
As for `COC(=O)C1=C(CN2CCO[C@@H]3CN(C(=O)OC(C)(C)C)C[C@H]32)NC(c2ncc(F)cc2F)=N[C@H]1c1ccc(F)cc1Cl` (single isomer, unassigned) [Reference 1A, (4aR*,7aR*)-tert-butyl 4-(((R*)-6-(2-chloro-4-fluorophenyl)-2-(3,5-difluoropyridin-2-yl)-5-(methoxycarbonyl)-3,6-dihydropyrimidin-4-yl)methyl)hexahydropyrrolo[3,4-b][1,4]oxazine-6(2H)-carboxylate, reference compound], in the data set with HBV (setting [3]), the EC50 is over 1 µM. In data set [1], this compound yielded a CC50 at 6 days of 14 µM.
Turning to `COC(=O)C1=C(CN2CCO[C@H]3CN(C(=O)OC(C)(C)C)C[C@@H]32)NC(c2ncc(F)cc2F)=N[C@H]1c1ccc(F)cc1Cl` (single isomer, unassigned) [Reference 1B, (4aS*,7aS*)-tert-butyl 4-(((R*)-6-(2-chloro-4-fluorophenyl)-2-(3,5-difluoropyridin-2-yl)-5-(methoxycarbonyl)-3,6-dihydropyrimidin-4-yl)methyl)hexahydropyrrolo[3,4-b][1,4]oxazine-6(2H)-carboxylate, reference compound], the EC50 in the data set on HBV (setting [3]) was over 1 µM. Moreover, the CC50 at 6 days in data set [1] worked out at 2.5 µM.
For `COC(=O)C1=C(CN2CCO[C@@H]3CN(C(=O)OC(C)(C)C)C[C@H]32)NC(c2ncc(F)cc2F)=N[C@@H]1c1ccc(F)cc1Cl` (single isomer, unassigned) [Reference 1C, (4aR*,7aR*)-tert-butyl 4-4(S*)-6-(2-chloro-4-fluorophenyl)-2-(3,5-difluoropyridin-2-yl)-5-(methoxycarbonyl)-3,6-dihydropyrimidin-4-yl)methyl)hexahydropyrrolo[3,4-b][1,4]oxazine-6(2H)-carboxylate, reference compound], the EC50 with HBV (setting [3]) was found to be 0.677 µM. Also, the CC50 at 6 days in data set [1] was determined as 3.7 µM.
As to `COC(=O)C1=C(CN2CCO[C@H]3CN(C(=O)OC(C)(C)C)C[C@@H]32)NC(c2ncc(F)cc2F)=N[C@@H]1c1ccc(F)cc1Cl` (single isomer, unassigned) [Reference 1D, (4aS*,7aS*)-tert-butyl 4-4(S*)-6-(2-chloro-4-fluorophenyl)-2-(3,5-difluoropyridin-2-yl)-5-(methoxycarbonyl)-3,6-dihydropyrimidin-4-yl)methyl)hexahydropyrrolo[3,4-b][1,4]oxazine-6(2H)-carboxylate, reference compound], the EC50 with HBV (setting [3]) is 0.812 µM. This compound also registered a CC50 at 6 days in data set [1] of 5.6 µM.
For `COC(=O)C1=C(CN2CCO[C@H]3CN(C(=O)OC(C)(C)C)C[C@H]32)NC(c2ncc(F)cc2F)=N[C@H]1c1ccc(F)cc1Cl` (single isomer, unassigned) [Reference 1E, tert-butyl (4aR*,7aS*)-4-4(R*)-6-(2-chloro-4-fluorophenyl)-2-(3,5-difluoropyridin-2-yl)-5-(methoxycarbonyl)-3,6-dihydropyrimidin-4-yl)methyl)hexahydropyrrolo[3,4-b][1,4]oxazine-6(2H)-carboxylate, reference compound], the EC50 in the data set with HBV (setting [3]) was over 1 µM. The compound further returned a CC50 at 6 days in data set [1] of 11.7 µM.
As to `COC(=O)C1=C(CN2CCO[C@H]3CN(C(=O)OC(C)(C)C)C[C@H]32)NC(c2ncc(F)cc2F)=N[C@@H]1c1ccc(F)cc1Cl` (single isomer, unassigned) [Reference 1F, tert-butyl (4aR*,7aS*)-4-4(S*)-6-(2-chloro-4-fluorophenyl)-2-(3,5-difluoropyridin-2-yl)-5-(methoxycarbonyl)-3,6-dihydropyrimidin-4-yl)methyphexahydropyrrolo[3,4-b][1,4]oxazine-6(2H)-carboxylate, reference compound], in the data set with HBV (setting [3]), the EC50 stood at 0.087 µM. Further, the CC50 at 6 days in data set [1] worked out at 5.8 µM.
On the same counts, the results for `COC(=O)C1=C(CN2CCO[C@@H]3CN(C(=O)OC(C)(C)C)C[C@@H]32)NC(c2ncc(F)cc2F)=N[C@H]1c1ccc(F)cc1Cl` (single isomer, unassigned) [Reference 1G, (4aS*,7aR*)-tert-butyl 4-(((R*)-6-(2-chloro-4-fluorophenyl)-2-(3,5-difluoropyridin-2-yl)-5-(methoxycarbonyl)-3,6-dihydropyrimidin-4-yl)methyl)hexahydropyrrolo[3,4-b][1,4]oxazine-6(2H)-carboxylate, reference compound] are over 1 µM and 14.5 µM.
As for `COC(=O)C1=C(CN2CCO[C@@H]3CN(C(=O)OC(C)(C)C)C[C@@H]32)NC(c2ncc(F)cc2F)=N[C@@H]1c1ccc(F)cc1Cl` (single isomer, unassigned) [Reference 1H, (4aS*,7aR*)-tert-butyl 4-(((S*)-6-(2-chloro-4-fluorophenyl)-2-(3,5-difluoropyridin-2-yl)-5-(methoxycarbonyl)-3,6-dihydropyrimidin-4-yl)methyl)hexahydropyrrolo[3,4-b][1,4]oxazine-6(2H)-carboxylate, reference compound], the EC50 in the data set with HBV (setting [3]) is over 1 µM. Half-maximal cytotoxicity in data set [1] (CC50 at 6 days) was put at 8.7 µM.
The compound `CCOC(=O)C1=C(CN2CCO[C@@H]3CN(C4CCC(C(=O)O)C4)C[C@@H]32)NC(c2nccs2)=N[C@H]1c1cccc(F)c1C` (stereo partly drawn) [Compound I-5] returned an EC50 in the data set on HBV (Hepatitis B virus, HepG2.2.15, 144 h) of 0.086 µM. In addition, the midpoint of cytotoxicity in data set [1], the CC50 at 6 days, lay at 40.6 µM.
